Results reported in patent publication US20260374766A1, “METHODS FOR TREATING CANCER” (Antares Therapeutics, Inc., priority 2022, published 2026).
Structures can show the parent of a compound that is named as a salt. Where two headings read alike, the source gives them in different places.

Assays:
[1] = target: T1, p53 Y220C mutant protein (amino acid residues 94-293) (Homo sapiens, UniProt P04637, Y220C); experiment: Surface Plasmon Resonance (SPR) assay, Kd_kinetic; type: binding; details: SPR, p53 Y220C, read-out: SPR P53 Y220C KD kinetic
T1 construct: p53 Y220C mutant protein (amino acid residues 94-293)
How it was run: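 Kinetic dissociation constants derived by 1:1 model fit of SPR data acquired at 16 or 20 °C, pH 7.5 Tris/NaCl running buffer with 1% DMSO.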

[2] = target: T1, p53 Y220C mutant protein (amino acid residues 94-293); experiment: Thermal Shift Assay (TSA), dTM; type: binding; details: for ΔTm at 100 µM: 100 uM compound, read-out: TSA P53 Y220C dTM (100 uM); for ΔTm at 10 µM: 10 uM compound
Experimental: Thermal Shift Assay (TSA) Protocol
5 μM recombinant p53 Y220C mutant protein (amino acid residues 94-293) was incubated with 10 μM or 100 μM compound for 3 hours at 20 °C in buffer containing 20 mM HEPES, pH7.4, 100 mM NaCl, 0.01% Pluronic F-127, and 1% DMSO in the presence of 400-fold diluted Sypro Orange (ThermoFisher Scientific catalog number 4461146), on a 384-well PCR plate (Applied Biosystems catalog number 4483285). The volume was 5 μL/well. The sealed plate was then loaded onto a QuantStudio 7 Flex instrument for melting temperature (TM) measurement. The temperature was increased from 30 °C to […], at a rate of 0.03 °C/second. Data were fit into a Boltzmann two-state model to determine the TM.

p53 Y220C = p53 Y220C (Homo sapiens, UniProt P04637, Y220C); experiment: Luciferase Reporter Assay (Luc), p53 response element, NClH1299 cells with inducible p53 Y220C; type: cell-based; details: luciferase reporter, NClH1299 inducible p53 Y220C, 6 hour; for AC50: read-out: Luc P53 Y220C AC50
How it was run: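 24 h dox pre-induction (0.5 ug/mL), then 6 h compound; One-Glo luminescent read.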

NUGC3 p53 Y220C = experiment: Cell Proliferation Assay (CellTiter-Glo, CTG), NUGC3 p53 Y220C; type: cell-based; details: Homo sapiens, NUGC-3, 120 h, CellTiter-Glo, 5 days
How it was run: (§1)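 Tet-One inducible p53 Y220C or R273H constructs were stably introduced into NCI-H1299 by lentiviral transduction; NUGC3 was used as is. Cells (250-500 per well) were exposed to compound for 5 days, then CellTiter-Glo was added for 10 min at room temperature and IC50 was calculated from luminescence.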

H1299 p53 Y220C = experiment: Cell Proliferation Assay (CellTiter-Glo, CTG), H1299 p53 Y220C (NClH1299-inducible p53 Y220C); type: cell-based; details: Homo sapiens, NCI-H1299, 120 h, CellTiter-Glo, 5 days
How it was run: as §1

H1299 p53 R273H = experiment: Cell Proliferation Assay (CellTiter-Glo, CTG), H1299 p53 R273H (NClH1299-inducible p53 R273H); type: cell-based; details: Homo sapiens, NCI-H1299, 120 h, CellTiter-Glo, 5 days
How it was run: as §1

[3] = 10 uM tool compound as positive control
[4] = p53 Y220C, read-out: TSA P53 Y220C dTM
[5] = NClH1299-inducible p53 Y220C cells
[6] = NClH1299-inducible p53 R273H cells
[7] = thermal shift, read-out: TSA P53 Y220C dTM (10 uM)

| Compound | Kd ([1]; kinetic KD) | ΔTm at 100 µM ([2]; thermal shift) | Emax (p53 Y220C; [3]) | AC50 (p53 Y220C) | IC50 (NUGC3 p53 Y220C; NUGC3 p53 Y220C) | IC50 (H1299 p53 Y220C; H1299 p53 Y220C) | IC50 (H1299 p53 R273H; H1299 p53 R273H) | Kd [1] | ΔTm at 10 µM [2, 4] | AC50 (p53 Y220C; AC50) | Emax (p53 Y220C; Emax) | IC50 (NUGC3 p53 Y220C; NUGC3 cells) | IC50 (H1299 p53 Y220C; [5]) | IC50 (H1299 p53 R273H; [6]) | ΔTm at 10 µM [2, 7] |
| --- | --- | --- | --- | --- | --- | --- | --- | --- | --- | --- | --- | --- | --- | --- | --- |
| CNC(=O)c1ccc(NCC#Cc2nc3c(N[C@@H]4CCN(C)CC4(F)F)cccn3c2CC(F)(F)F)c(OC)c1 (single isomer, unassigned) [Example 37] | > 1 µM | 5 to 10 °C | < 70% | > 3 µM | > 3 µM | > 3 µM | ≥ 10 µM |  |  |  |  |  |  |  |  |
| CNC(=O)c1ccc(NCC#Cc2nc3c(N[C@H]4CCN(C)CC4(F)F)cccn3c2CC(F)(F)F)c(OC)c1 (single isomer, unassigned) [Example 38] | > 1 µM | 5 to 10 °C | < 70% | > 3 µM | > 3 µM | > 3 µM | ≥ 10 µM |  |  |  |  |  |  |  |  |
| CNC(=O)c1ccc(OC[C@H](C)O)c(NCC#Cc2cc3c(N[C@@H]4CCN(C)C[C@@H]4F)nccn3c2SC(F)(F)F)c1 (single isomer, unassigned) [Example 355] |  |  |  |  |  |  |  | < 0.01 µM | ≥ 10 °C | < 0.75 µM | > 90% | < 0.75 µM | < 0.75 µM | ≥ 10 µM |  |
| CNC(=O)c1ccc(OC[C@@H](C)O)c(NCC#Cc2cc3c(N[C@@H]4CCN(C)C[C@@H]4F)nccn3c2SC(F)(F)F)c1 (single isomer, unassigned) [Example 356] |  |  |  |  |  |  |  | < 0.01 µM | ≥ 10 °C | < 0.75 µM | > 90% | < 0.75 µM | < 0.75 µM | ≥ 10 µM |  |
| CNC(=O)c1ccc(NCC#Cc2nc3c(N[C@H]4CCc5ncnn5C4)cccn3c2SC(F)(F)F)c(OC)c1 (stereo in doubt) [Example 189] | 0.01 to 0.1 µM | 5 to 10 °C | 70 to 80% | > 3 µM | > 3 µM | > 3 µM | ≥ 10 µM |  |  |  |  |  |  |  | 5 to 10 °C |
| CNC(=O)c1ccc(NCC#Cc2nc3c(N[C@@H]4CCc5ncnn5C4)cccn3c2SC(F)(F)F)c(OC)c1 (stereo in doubt) [Example 190] | < 0.01 µM | ≥ 10 °C | > 90% | < 0.75 µM | < 0.75 µM | < 0.75 µM | ≥ 10 µM |  |  |  |  |  |  |  | 5 to 10 °C |
| COc1cc(S(C)(=O)=O)ccc1NCC#Cc1nc2c(N[C@@H]3CCN(C)C[C@@H]3F)cccn2c1CC(F)(F)F [Example 1, (3S,4R)-3-fluoro-N-(2-{3-[(4-methanesulfonyl-2-methoxyphenyl)amino]prop-1-yn-1-yl}-3-(2,2,2-trifluoroethyl)imidazo[1,2-a]pyridin-8-yl)-1-methylpiperidin-4-amine] | < 0.01 µM | ≥ 10 °C | 70 to 80% | 0.75 to 1.5 µM | 0.75 to 1.5 µM | < 0.75 µM | 8 to 10 µM |  |  |  |  |  |  |  |  |
| COc1cc(S(C)(=O)=O)ccc1NCC#Cc1nc2c(NC3CCN(C)CC3)cccn2c1CC(F)(F)F [Example 2, N-(2-{3-[(4-methanesulfonyl-2-methoxyphenyl)amino]prop-1-yn-1-yl}-3-(2,2,2-trifluoroethyl)imidazo[1,2-a]pyridin-8-yl)-1-methylpiperidin-4-amine] | 0.01 to 0.1 µM | ≥ 10 °C | < 70% | > 3 µM | 1.5 to 3 µM | 1.5 to 3 µM | 5 to 8 µM |  |  |  |  |  |  |  |  |
| COc1cc(S(C)(=O)=O)ccc1NCC#Cc1nc2c(NC3CCOCC3)cccn2c1CC(F)(F)F [Example 3, 2-{3-[(4-methanesulfonyl-2-methoxyphenyl)amino]prop-1-yn-1-yl}-N-(oxan-4-yl)-3-(2,2,2-trifluoroethyl)imidazo[1,2-a]pyridin-8-amine] | 0.01 to 0.1 µM | ≥ 10 °C | 70 to 80% | 1.5 to 3 µM | > 3 µM | 1.5 to 3 µM | ≥ 10 µM |  |  |  |  |  |  |  |  |
| CNC(=O)c1ccc(NCC#Cc2nc3c(NC4CCN(C)CC4)cc(NC(=O)C(F)Cl)cn3c2CC(F)(F)F)c(OC)c1 (centres unmarked) [Example 43, 4-((3-[6-(2-chloro-2-fluoroacetamido)-8-[(1-methylpiperidin-4-yl)amino]-3-(2,2,2-trifluoroethyl)imidazo[1,2-a]pyridin-2-yl]prop-2-yn-1-ylamino)-3-methoxy-N-methylbenzamide, formic acid salt] |  | 1 to 5 °C | < 70% | > 3 µM | > 3 µM | > 3 µM | ≥ 10 µM |  |  |  |  |  |  |  |  |
| CNC(=O)c1ccc(NCC#Cc2nc3c(NC4CCN(C)CC4)cc(NC(=O)OC)cn3c2CC(F)(F)F)c(OC)c1 [Example 45, methyl N-[2-(3-{[2-methoxy-4-(methylcarbamoyl)phenyl]amino}prop-1-yn-1-yl)-8-[(1-methylpiperidin-4-yl)amino]-3-(2,2,2-trifluoroethyl)imidazo[1,2-a]pyridin-6-yl]carbamate] |  | 1 to 5 °C | < 70% | > 3 µM | > 3 µM | > 3 µM | ≥ 10 µM |  |  |  |  |  |  |  |  |
| CN1CC[C@@H](Nc2cccn3c(CC(F)(F)F)c(C#CCN)nc23)[C@@H](F)C1 [Example 75, (3S,4R)—N-[2-(3-aminoprop-1-yn-1-yl)-3-(2,2,2-trifluoroethyl)imidazo[1,2-a]pyridin-8-yl]-3-fluoro-1-methylpiperidin-4-amine] |  | 1 to 5 °C | < 70% | > 3 µM | > 3 µM | > 3 µM | ≥ 10 µM |  |  |  |  |  |  |  |  |
| C=C(F)C(=O)Nc1cc(NC2CCN(C)CC2)c2nc(C#CCNc3ccc(C(=O)NC)cc3OC)c(CC(F)(F)F)n2c1 [Example 90, 4-({3-[6-(2-fluoroprop-2-enamido)-8-[(1-methylpiperidin-4-yl)amino]-3-(2,2,2-trifluoroethyl)imidazo[1,2-a]pyridin-2-yl]prop-2-yn-1-yl}amino)-3-methoxy-N-methylbenzamide] |  | 1 to 5 °C | < 70% | > 3 µM | > 3 µM | > 3 µM | ≥ 10 µM |  |  |  |  |  |  |  |  |
| CNC(=O)c1ccc(NCC#Cc2nc3c(NC4CCN(C)CC4)cc(NC(=O)CCl)cn3c2CC(F)(F)F)c(OC)c1 [Example 91] |  | ≥ 10 °C | < 70% | > 3 µM | > 3 µM | > 3 µM | ≥ 10 µM |  |  |  |  |  |  |  |  |
| CNC(=O)c1ccc(NCC#Cc2nc3c(N[C@@H]4CCN(C)C[C@@H]4F)cc(F)cn3c2CC(F)(F)F)c(OC)c1 [Example 99, 4-{[3-(6-fluoro-8-{[(3S,4R)-3-fluoro-1-methylpiperidin-4-yl]amino}-3-(2,2,2-trifluoroethyl)imidazo[1,2-a]pyridin-2-yl)prop-2-yn-1-yl]amino}-3-methoxy-N-methylbenzamide, formic acid salt] |  | ≥ 10 °C | 80 to 90% | 0.75 to 1.5 µM | 0.75 to 1.5 µM | 0.75 to 1.5 µM | 5 to 8 µM |  |  |  |  |  |  |  |  |
| COc1cc(P(C)(C)=O)ccc1NCC#Cc1cc2c(N[C@@H]3CCN(C)C[C@@H]3F)nccn2c1SC(F)(F)F [Example 185, (3S,4R)—N-[7-(3-{[4-(dimethylphosphoryl)-2-methoxyphenyl]amino}prop-1-yn-1-yl)-6-[(trifluoromethyl)sulfanyl]pyrrolo[1,2-a]pyrazin-1-yl]-3-fluoro-1-methylpiperidin-4-amine; formic acid] |  |  | 80 to 90% | < 0.75 µM | < 0.75 µM | < 0.75 µM | ≥ 10 µM |  |  |  |  |  |  |  | ≥ 10 °C |
